Assay results published in paper PMC11528044 (Nature Communications, 2024).
Like-named read-outs stand apart in the source and are kept apart here. Marks after values point to notes of the source that are not given here.

Legend:
[1] = tested on: L. donovani strain 1S2D promastigotes (Ld1S WT and CYP5122A1 mutants); settings: 48 hours; for EC50: read-out: EC50, promastigote growth
[2] = tested on: intracellular amastigotes; settings: ref Wang et al. (ref. 45); cited from earlier work
LdCYP51 [3] = target: T1, LdCYP51 (Leishmania donovani, UniProt A0A3S7WRS7)
T1 sequence (A0A3S7WRS7 32-480): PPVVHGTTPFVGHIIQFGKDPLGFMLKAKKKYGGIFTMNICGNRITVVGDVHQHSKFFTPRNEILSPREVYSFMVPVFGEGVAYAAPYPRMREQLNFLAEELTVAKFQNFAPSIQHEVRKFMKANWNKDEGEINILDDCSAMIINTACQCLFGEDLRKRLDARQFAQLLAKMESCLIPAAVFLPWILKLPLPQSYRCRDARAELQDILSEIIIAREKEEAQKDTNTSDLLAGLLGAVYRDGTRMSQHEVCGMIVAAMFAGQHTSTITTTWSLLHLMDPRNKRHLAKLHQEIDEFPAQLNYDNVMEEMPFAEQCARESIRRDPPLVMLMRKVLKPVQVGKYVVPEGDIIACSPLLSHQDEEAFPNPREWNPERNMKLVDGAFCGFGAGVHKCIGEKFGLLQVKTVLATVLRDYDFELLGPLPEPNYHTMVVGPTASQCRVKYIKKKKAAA

LdCYP5122A1 [4] = target: T2, LdCYP5122A1 (Leishmania donovani, UniProt A0A3S7X0B6)
T2 sequence (A0A3S7X0B6 61-592): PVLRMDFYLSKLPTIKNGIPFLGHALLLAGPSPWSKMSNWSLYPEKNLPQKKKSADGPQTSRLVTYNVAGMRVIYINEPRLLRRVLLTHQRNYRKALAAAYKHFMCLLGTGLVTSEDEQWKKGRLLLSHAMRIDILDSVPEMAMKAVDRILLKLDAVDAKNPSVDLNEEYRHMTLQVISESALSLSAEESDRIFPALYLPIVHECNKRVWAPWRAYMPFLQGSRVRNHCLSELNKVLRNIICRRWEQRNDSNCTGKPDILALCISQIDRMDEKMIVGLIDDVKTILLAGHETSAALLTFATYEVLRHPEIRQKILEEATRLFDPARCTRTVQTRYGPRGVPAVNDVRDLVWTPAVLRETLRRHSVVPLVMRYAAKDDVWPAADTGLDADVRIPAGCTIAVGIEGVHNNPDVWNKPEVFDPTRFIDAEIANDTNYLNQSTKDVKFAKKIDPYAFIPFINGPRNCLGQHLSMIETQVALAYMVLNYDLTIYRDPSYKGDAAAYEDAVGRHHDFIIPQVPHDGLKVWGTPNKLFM

LdCYP5122A1 [5] = target: T2, LdCYP5122A1; assay: biochemical; settings: for inhibition at 100 µM: read-out: % inhibition of CYP5122A1 at 100 μM
[6] = tested on: intracellular amastigotes of L. infantum; settings: cited from earlier work; for EC50: read-out: EC50, elimination of intracellular amastigotes of L. infantum
LdCYP51 [7] = target: T1, LdCYP51; assay: biochemical
[8] = tested on: L. donovani LV82 promastigotes; assay: microbe, parasite or virus in culture; settings: Leishmania donovani, 72 h, read-out: EC50 (L. donovani)
L. donovani CYP51 = L. donovani CYP51 (Leishmania donovani, UniProt A0A3S7WRS7); assay: UV-Vis difference binding spectra of ligands with purified recombinant CYP51
Chain of L. donovani CYP51 (A0A3S7WRS7 32-480): as the sequence (A0A3S7WRS7 32-480) above

[9] = tested on: intracellular L. major and L. amazonensis; settings: 10 μM; cited from earlier work
L. donovani CYP5122A1 = target: T3, L. donovani CYP5122A1 (Leishmania donovani, UniProt A0A3S7X0B6); assay: UV-Vis difference binding spectra of ligands with purified recombinant CYP5122A1
T3 sequence (A0A3S7X0B6 61-592): T2 sequence (A0A3S7X0B6 61-592)

[10] = tested on: multiple strains of L. donovani and L. infantum promastigotes; settings: 1 μg/mL; cited from earlier work
[11] = tested on: L. donovani strain 1S2D promastigotes (Ld1S WT and CYP5122A1 mutants); assay: microbe, parasite or virus in culture; settings: Leishmania donovani, 48 h
[12] = tested on: L. donovani LV82 promastigote cultures; assay: Microscopic counts of LV82 promastigote cultures; type: cell-based, Leishmania donovani; settings: LV82 promastigotes, cell counts daily for three days
[13] = tested on: intracellular L. donovani parasites; assay: Intracellular L. donovani in infected peritoneal macrophage assay; type: cell-based, Leishmania donovani; settings: Supplementary Fig. 12
[14] = tested on: sterol profile of LV82 promastigotes; assay: LC-MS/MS sterol analysis of inhibitor-treated LV82 promastigotes; type: cell-based, Leishmania donovani; settings: 50 μM voriconazole vs. DMSO, 24 hr

Q: Which EC50 ([1]; CYP5122A1 overexpressors) does the source give for CC(C)Oc1cc(NC(=N)c2ccccn2)ccc1-c1ccc(-c2ccc(NC(=N)c3ccccn3)cc2OC(C)C)o1 [DB766] here?
A: ~12 nM

Q: What about the EC50 ([1]; WT and Ld22A1 + /‒) of the same compound?
A: 1 to 4 nM

Q: And the “IC50 vs. intracellular amastigotes (printed in column EC50 (L. donovani))” value (shortened to “IC50 vs. intracellular amastigotes”) [2]?
A: 0.036^f μM

Q: And the “% inhibition of LdCYP51 at 30 μM” value (LdCYP51 [3]; 30 μM)?
A: <30% inhibition at 30 μM

Q: What about the “Selectivity for CYP5122A1 over CYP51” value (LdCYP5122A1 [4]) of the same compound?
A: > 30 fold

Q: What about the IC50 (LdCYP5122A1 [4]; read-out: IC50 (LdCYP5122A1), mean ± standard deviation (n = 3)) of the same compound?
A: 1000 ± 100 nM

Q: With Clc1ccc(C(Cn2ccnc2)OCc2ccc(Sc3ccccc3)cc2)c(Cl)c1 (centres unmarked) [Fenticonazole] as the compound, how does the IC50 (LdCYP5122A1 [5]) read?
A: 0.65 ± 0.08 µM

Q: And the EC50 [6]?
A: 2.9 ± 0.3 µM

Q: What about the IC50 (LdCYP51 [7]) of the same compound?
A: 81 ± 2 nM

Q: What about the EC50 [8] of the same compound?
A: 5.6 ± 0.3 µM

Q: What about the “SI (selectivity index) = IC50 against LdCYP5122A1/IC50 against LdCYP51” value (from here on “SI (selectivity index) = IC50”) (LdCYP5122A1 [4]) of the same compound?
A: 8.0

Q: Which results are given for OC(Cn1cncn1)(Cn1cncn1)c1ccc(F)cc1F [Fluconazole]?
A: IC50 (LdCYP5122A1 [5]): > 100 µM; inhibition at 100 µM (LdCYP5122A1 [5]): < 20%; Binding mode with CYP51 (difference binding spectrum) (L. donovani CYP51): type II binding; Inhibition of intracellular parasites [9]: < 50%; Binding mode with CYP5122A1 (difference binding spectrum) (L. donovani CYP5122A1): no specific responses; Growth compared with control [10]: > 80%

Q: For CCCCCCCCCCCCCCCCOP(=O)([O-])OCC[N+](C)(C)C [Miltefosine], which IC50 (LdCYP5122A1 [5]) is on record?
A: 43 ± 1 µM

Q: What about the “IC50 vs. intracellular amastigotes” value [2] of the same compound?
A: 2.7^e μM

Q: What about the IC50 (LdCYP51 [7]) of the same compound?
A: 12000 ± 1000 nM

Q: What about the “SI (selectivity index) = IC50” value (LdCYP5122A1 [4]) of the same compound?
A: 3.5

Q: With NC[C@@H]1O[C@H](O[C@H]2[C@@H](O)[C@H](O[C@@H]3[C@@H](O)[C@H](N)C[C@H](N)[C@H]3O[C@H]3O[C@H](CO)[C@@H](O)[C@H](O)[C@H]3N)O[C@@H]2CO)[C@H](N)[C@@H](O)[C@@H]1O [Paromomycin] as the compound, how does the “IC50 vs. intracellular amastigotes” value [2] read?
A: >50^e μM

Q: With CC[C@@H]([C@H](C)O)n1ncn(-c2ccc(N3CCN(c4ccc(OC[C@@H]5CO[C@@](Cn6cncn6)(c6ccc(F)cc6F)C5)cc4)CC3)cc2)c1=O [Posaconazole] as the compound, how does the EC50 ([11]; read-out: Concentration sufficient to reach EC50) read?
A: 0.1 µM

Q: And the EC50 ([11]; read-out: EC50, promastigote growth)?
A: ~25 µM

Q: What about the “Concentration needed to inhibit growth further” value ([1]; Ld1S WT, bi-phasic response) of the same compound?
A: more than 12 μM

Q: And the “Binding mode with CYP51 (difference binding spectrum)” value (L. donovani CYP51)?
A: type II binding

Q: And the “Leishmanicidal vs. leishmanistatic effect” value [12]?
A: leishmanistatic effect

Q: What about the “Binding mode with CYP5122A1 (difference binding spectrum)” value (L. donovani CYP5122A1) of the same compound?
A: type II-like binding

Q: And the “Effect on intracellular L. donovani parasites” value [13]?
A: more effective than fluconazole

Q: With Clc1ccc(C(Cn2ccnc2)OCc2ccsc2Cl)c(Cl)c1 (centres unmarked) [Tioconazole] as the compound, how does the IC50 (LdCYP5122A1 [5]) read?
A: 1.1 ± 0.2 µM

Q: What about the EC50 [6] of the same compound?
A: 4 ± 0.2 µM

Q: And the IC50 (LdCYP51 [7])?
A: 54 ± 8 nM

Q: And the EC50 [8]?
A: 9.5 ± 0.6 µM

Q: And the “SI (selectivity index) = IC50” value (LdCYP5122A1 [4])?
A: 20

Q: With C[C@@H](c1ncncc1F)[C@](O)(Cn1cncn1)c1ccc(F)cc1F [Voriconazole] as the compound, how does the IC50 (LdCYP5122A1 [5]) read?
A: > 100 µM

Q: And the inhibition at 100 µM (LdCYP5122A1 [5])?
A: < 28%

Q: What about the “Binding mode with CYP51 (difference binding spectrum)” value (L. donovani CYP51) of the same compound?
A: type II binding

Q: What about the “EC50, elimination of intracellular amastigotes of L. infantum” value [6] of the same compound?
A: failed

Q: What about the “Inhibition of intracellular parasites” value [9] of the same compound?
A: < 50%

Q: And the “4,14-Dimethylzymosterol level normalized to DMSO-treated parasites” value [14]?
A: 17 ± 2

Q: What about the “4CH2OH-LS level normalized to DMSO-treated parasites” value [14] of the same compound?
A: 0.83 ± 0.09

Q: And the “5-Dehydroepisterol level normalized to DMSO-treated parasites” value [14]?
A: 0.078 ± 0.043

Q: And the “7-Dehydrodesmosterol level normalized to DMSO-treated parasites” value [14]?
A: 0^d,**

Q: And the “14-Methylfecosterol level normalized to DMSO-treated parasites” value [14]?
A: Accumulated^a,***

Q: And the “14-Methylzymosterol level normalized to DMSO-treated parasites” value [14]?
A: 8.0 ± 1.0

Q: And the “Cholesterol (exogenous) level normalized to DMSO-treated parasites” value [14]?
A: 0.88 ± 0.07

Q: And the “Ergosta-5,7-dienol level normalized to DMSO-treated parasites” value [14]?
A: 0.39 ± 0.11

Q: What about the “Ergostatetraenol level normalized to DMSO-treated parasites” value [14] of the same compound?
A: 0.086 ± 0.027

Q: What about the “Ergosterol level normalized to DMSO-treated parasites” value [14] of the same compound?
A: 0.30 ± 0.08

Q: What about the “FF-MAS level normalized to DMSO-treated parasites” value [14] of the same compound?
A: Not detected

Q: And the “Lanosterol level normalized to DMSO-treated parasites” value [14]?
A: 1.6 ± 0.2

Q: And the “T-MAS level normalized to DMSO-treated parasites” value [14]?
A: Not detected

Q: And the “Zymosterol level normalized to DMSO-treated parasites” value ([14]; not separated from cholesta-7,24-dienol)?
A: 0.067 ± 0.034

Q: And the “4-Methylzymosterol level normalized to DMSO-treated parasites” value ([14]; not separated from episterol and fecosterol)?
A: 0.18 ± 0.06

Q: What about the “Binding mode with CYP5122A1 (difference binding spectrum)” value (L. donovani CYP5122A1) of the same compound?
A: no specific responses

Q: And the IC50 (LdCYP51 [7])?
A: 85 ± 17 nM

Q: And the “Selectivity for CYP51 over CYP5122A1” value (LdCYP51 [3])?
A: > 1176 fold

Q: What about the EC50 [8] of the same compound?
A: > 100 µM

Q: What about the “SI (selectivity index) = IC50” value (LdCYP5122A1 [4]) of the same compound?
A: >1176
